Measurements as given in US8394779B2, “Methods of modulating angiogenesis via TRPV4” (Children's Medical Center Corporation, priority 2008, dated 2013).
“Also recorded” adds a separate entry of the source. Where no end group is shown, it is not given here. [ ]: non-standard residue; d: D form.

Legend:
TRPV4-EGFP = assay: Whole-cell patch clamp of bovine CE cells transfected with TRPV4-EGFP; assay type: cell-based; conditions: 4 μM
Description: One day after bovine CE cells were transfected with TRPV4-EGFP, they were plated on gelatin-coated glass coverslips and allowed to grow for ˜24 h prior to recording. Cells were recorded in the whole-cell mode using borosilicate glass pipettes (1-3 MΩ) containing: (in mM) 120 CsMeSO3, 10 EGTA, 2 MgCl2, 10 HEPES; pH and osmolarity were adjusted with CsOH or HMeSO3, as needed, to 7.2 (23° C.) and ˜300 mOsm, respectively. Cells were bathed in a solution containing (in mM): 138 NaCl, 5 KCl, 1.8 CaCl2, 1 MgCl2, 10 HEPES; pH and osmolarity were adjusted with NaOH or HCl, as needed, to 7.4 (23° C.) and ˜310 mOsm, respectively. Cells were held at −40 mV for 3-5 min to allow for intracellular dialysis. Bath superfusion was stopped prior to initiating the recording of currents resulting from the indicated voltage protocol applied every 5 s. Immediately before use, a 4-α-PDD stock solution (2 mM in EtOH, on ice) was diluted 1:50 in bath solution under vortex and 50 μl was subsequently added to a still bath (0.5 ml) by pipette (final concentrations of 4 μM 4-α-PDD and 0.2% EtOH) and mixed by 3 gentle up/down pipette strokes. […]

TRPV4 channels [1] = target: T1, TRPV4 channels (Homo sapiens, UniProt Q9HBA0); assay: Calcium imaging with TRPV channel activator; assay type: cell-based; conditions: human CE cells, 2 μM
T1 construct: host or cells: human dermal microvascular endothelial cells (HMVECs)
T1 sequence (Q9HBA0 whole entry): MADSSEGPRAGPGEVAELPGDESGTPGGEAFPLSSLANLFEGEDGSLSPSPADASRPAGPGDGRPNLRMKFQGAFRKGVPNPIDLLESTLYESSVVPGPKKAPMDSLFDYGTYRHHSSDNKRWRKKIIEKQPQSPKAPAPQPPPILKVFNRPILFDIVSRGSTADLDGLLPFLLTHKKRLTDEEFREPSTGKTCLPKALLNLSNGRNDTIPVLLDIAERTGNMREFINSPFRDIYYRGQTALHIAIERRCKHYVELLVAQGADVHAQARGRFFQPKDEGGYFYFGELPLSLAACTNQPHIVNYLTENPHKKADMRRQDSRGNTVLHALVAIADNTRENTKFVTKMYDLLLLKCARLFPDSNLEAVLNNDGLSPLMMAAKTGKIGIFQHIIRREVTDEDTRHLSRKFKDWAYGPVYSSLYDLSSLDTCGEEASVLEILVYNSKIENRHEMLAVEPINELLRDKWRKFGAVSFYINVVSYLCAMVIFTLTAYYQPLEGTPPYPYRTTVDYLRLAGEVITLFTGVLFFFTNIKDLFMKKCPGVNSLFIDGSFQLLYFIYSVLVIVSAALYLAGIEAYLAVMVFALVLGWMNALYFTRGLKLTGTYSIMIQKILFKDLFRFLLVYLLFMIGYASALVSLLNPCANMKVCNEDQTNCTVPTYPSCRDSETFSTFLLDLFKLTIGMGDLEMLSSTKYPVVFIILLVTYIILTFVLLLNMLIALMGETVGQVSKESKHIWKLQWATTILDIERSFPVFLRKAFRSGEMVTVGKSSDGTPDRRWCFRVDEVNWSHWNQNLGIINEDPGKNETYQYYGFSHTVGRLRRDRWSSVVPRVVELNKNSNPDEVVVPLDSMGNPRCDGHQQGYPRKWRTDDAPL
Description: (§1) CE cells cultured on fibronectin-coated 6 well UNIFLEX™ (FLEXCELL® International) plates for 24 hours were subjected to uniaxial cyclic stretch (10% elongation; 1 Hz frequency) for 1-2 h using a FLEXERCELL® TENSION PLUS™ System (FLEXCELL® International). In some experiments, CE cells were plated on fibronectin-coated 6 well BIOFLEX® (FLEXCELL® International) for lh and subjected to static stretch (15% elongation) for 1-15 min. Control cells were maintained under identical conditions in the absence of strain application. […] Images were acquired for every 4 seconds and analyzed using IP lab software and Microsoft Excel as described in Matthews, et. al. (2006) (J. Cell Sci., 119:508-518). Calcium imaging with TRPV channel activators was performed on cells cultured on MatTek glass bottomed dishes on LEICA® Confocal Microscope and analyzed using LEICA® software and MICROSOFT® EXCEL®. siRNA knock down of TRPV channels: smart pool siRNAs (10 nM) of TRPV2, TRPV4 (both from Dharmacon), TRPC1 (AMBION®) or control (QIAGEN®) siRNAs was transfected into CE cells using SILENTFECT™ reagent (BIORAD®) as described in Mammoto et. al. (2007) (J. Cell Sci., 120:456-467). […] The knock down of TRPV channel expression was assessed using RT-PCR with species-specific primers and Western blotting. […]

TRPV4 channels [2] = target: T2, TRPV4 channels (Bos taurus, UniProt A0A8F4X677); assay: Calcium imaging with TRPV channel activator; assay type: cell-based; conditions: bovine CE cells, 2 μM
T2 construct: endogenous in cells; host or cells: bovine CE cells
T2 sequence (A0A8F4X677 1-871): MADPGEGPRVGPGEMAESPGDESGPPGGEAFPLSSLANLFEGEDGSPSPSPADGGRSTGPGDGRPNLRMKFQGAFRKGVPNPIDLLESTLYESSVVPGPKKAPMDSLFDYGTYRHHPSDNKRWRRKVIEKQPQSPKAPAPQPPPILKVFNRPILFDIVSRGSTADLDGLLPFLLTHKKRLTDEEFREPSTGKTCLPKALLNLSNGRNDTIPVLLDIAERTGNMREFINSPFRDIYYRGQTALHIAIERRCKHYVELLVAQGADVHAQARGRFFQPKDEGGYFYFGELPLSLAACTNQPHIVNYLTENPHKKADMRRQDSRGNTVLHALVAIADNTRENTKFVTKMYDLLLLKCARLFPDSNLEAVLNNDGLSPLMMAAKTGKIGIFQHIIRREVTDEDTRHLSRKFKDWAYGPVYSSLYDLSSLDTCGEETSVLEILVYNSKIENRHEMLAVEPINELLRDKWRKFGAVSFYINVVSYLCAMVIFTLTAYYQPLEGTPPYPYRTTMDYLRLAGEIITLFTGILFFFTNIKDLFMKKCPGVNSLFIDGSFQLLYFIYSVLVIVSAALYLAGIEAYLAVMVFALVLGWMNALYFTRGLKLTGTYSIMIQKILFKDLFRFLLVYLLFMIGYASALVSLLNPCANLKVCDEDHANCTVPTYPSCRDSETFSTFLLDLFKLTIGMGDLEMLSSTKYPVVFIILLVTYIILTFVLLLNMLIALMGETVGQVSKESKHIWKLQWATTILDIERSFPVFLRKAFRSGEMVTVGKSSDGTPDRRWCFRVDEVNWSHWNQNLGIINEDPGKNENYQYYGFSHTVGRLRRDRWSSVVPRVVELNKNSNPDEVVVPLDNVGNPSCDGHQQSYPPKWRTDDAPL
Description: as §1

VEGF [3] = conditions: cited from earlier work
[4] = mice; cited from earlier work
bovine CE cells = assay: Cyclic strain-induced CE cell reorientation (alignment); assay type: cell-based
Description: as §1

[5] = tested on: cytosolic calcium in CE cells; conditions: within 2-5 sec; cited from earlier work
[6] = tested on: cytosolic calcium in CE cells; assay: Calcium influx on direct force application to cell surface integrins; assay type: cell-based, bovine; conditions: within 5 to 50 msec
β1 integrin [7] = assay: Strain-induced β1 integrin activation (GST-FNIII8-11 / 12G10 binding, T788/789 phosphorylation); assay type: cell-based; conditions: bovine CE cells, GST-FNIII8-11 and 12G10 binding
Description: (§2) Western blotting were performed according to methods published in Mammoto et. al. (2007) (J. Cell Sci., 120:456-467). Membranes containing transferred protein were blocked in 3% BSA/TBST for 1 h and incubated overnight with primary antibodies against AKT and phospho Ser-473 AKT (1:1000), phospho-Thr 788/789 of […] integrin cytoplasmic tail (1:1000), ERK1/2 and phospho ERK1/2 (1:1000), FAK and phospho FAK-pY397 (1:1000), actin (1:1000) and TRPV4 (1:1000) at 4° C. The membranes were subsequently washed incubated with HRP-conjugated secondary antibodies (1:5000) for 1 h and washed and incubated with SUPERSIGNAL® West Pico ECL reagent from Pierce Biotechnology Inc. (USA) and exposed to Kodak X-ray film (SIGMA ALDRICH®).
(§3) β1 integrin activation was measured using a glutathione S-transferase (GST) fusion protein consisting of FN III repeat 8-11 domains or 12G10 antibodies (Orr, A. W. et. al., 2006, Mol. Biol. Cell 17:4686-4697). Briefly, cells subjected to mechanical stretch were incubated with either 5 μg/ml of GST-FN III8-11 protein or 12G10 antibodies in PBS containing Ca^2+ and Mg^2+ for 30 min at 37° C., washed and lysed in SDS-sample buffer. The samples were separated on SDS-PAGE and the bound reagents were assessed on Western blots using anti GST-antibodies and HRP-conjugated secondary antibodies.

[8] = tested on: cytosolic calcium in CE cells; assay: Mechanical strain-induced calcium influx, FLUO-4 calcium imaging; assay type: cell-based, bovine; conditions: strain 15%, 3-4 sec, gadolinium chloride 25 μM, siRNA 10 nM
Description: as §1

PI3K = assay: Strain-induced PI3K activity (GFP-AKT-PH translocation, AKT Ser-473 phosphorylation); assay type: cell-based, bovine; conditions: mechanical strain 15%
Description: Cells adherent to flexible ECM substrates and subjected to mechanical stretch were washed in PBS, fixed in 4% paraformaldehyde for 30 min either mounted on glass slides (for visualizing GFP-AKT-PH translocation) or permeabilized with 0.25% TRITON®-X 100/PBS for 5 min for immuno staining. […] Images were acquired on a LEICA® Confocal SP2 microscope and processed using LEICA® software and Adobe Photoshop. GFP-AKT-PH domain translocation to the plasma membrane was quantified measuring either ratio of the perimeter of whole cell membrane and the membrane that contains the GFP-AKT-PH domain or the ratio of GFP fluorescence intensity of translocated GFP-AKT-PH domain and cytosol adjacent to the membrane. […] Statistical differences between experimental groups were determined using the student t-test.
Membranes containing transferred protein were blocked in 3% BSA/TBST for 1 h and incubated overnight with primary antibodies against AKT and phospho Ser-473 AKT (1:1000), phospho-Thr 788/789 of 131 integrin cytoplasmic tail (1:1000), ERK1/2 and phospho ERK1/2 (1:1000), FAK and phospho FAK-pY397 (1:1000), actin (1:1000) and TRPV4 (1:1000) at 4° C. […]

β1 integrin [9] = assay: Strain-induced β1 integrin activation (GST-FNIII8-11 binding, T788/789 phosphorylation); assay type: cell-based; conditions: human CE cells; 30 min pretreatment
Description: as §2, §3

VEGF [10] = conditions: in vivo; cited from earlier work

Question: For `CCCCCCCCCC(=O)O[C@@H]1[C@@H](C)[C@@]2(O)[C@@H](C=C(CO)C[C@@]3(O)C(=O)C(C)=C[C@@H]23)[C@@H]2C(C)(C)[C@]12OC(=O)CCCCCCCCC` [4-α-PDD, 4-α-phorbol 12, 13-didecanoate], which “TRPV4 currents, whole-cell clamp” value (TRPV4-EGFP) is on record?
Answer: robust TRPV4 currents

Question: What about the calcium signal (TRPV4 channels [1]) of the same molecule?
Answer: robust calcium signal

Question: What about the calcium signal (TRPV4 channels [2]) of the same molecule?
Answer: robust calcium signal

Question: Which vessel formation (VEGF [3]) does the source give for `CN(C)c1ccc(/C=C2\C(=O)Nc3ccccc32)cc1` [SU 4312] here?
Answer: blocked

Question: Which “diet-induced and genetic obesity” value [4] does the source give for `CO[C@@H]1[C@H](OC(=O)NC(=O)CCl)CC[C@]2(CO2)[C@H]1[C@@]1(C)O[C@@H]1CC=C(C)C` [TNP-470] here?
Answer: prevent

Question: What about the “vascularity in the adipose tissue” value [4] of the same molecule?
Answer: reduced

Question: With `[Cl][Gd]([Cl])[Cl]` [gadolinium chloride] as the molecule, how does the “CE cell reorientation / re-alignment induced by mechanical strain” value (bovine CE cells) read?
Answer: greatly suppressed

Question: And the “calcium influx on direct force application to β1 integrins (magnetic tweezers)” value [5]?
Answer: blocked

Question: What about the “calcium influx on force application to integrins” value [6] of the same molecule?
Answer: inhibited

Question: What about the “β1 integrin activation in response to mechanical strain” value (β1 integrin [7]) of the same molecule?
Answer: significantly inhibited

Question: What about the “calcium influx / cytosolic calcium induced by mechanical strain” value [8] of the same molecule?
Answer: almost completely abolished; also recorded: reduced influx

Question: And the “strain-induced translocation of AKT-PH-GFP to the membrane” value (PI3K)?
Answer: inhibited

Question: And the “β1 integrin activation in response to mechanical strain” value (β1 integrin [9])?
Answer: significantly inhibited

Question: Which results are given for `N.N.N.N.N.N.N.N.N.N.N.N.N.N.[Cl-].[Cl-].[Cl-].[Cl-].[Cl-].[Cl-].[O-2].[O-2].[Ru+3].[Ru+3].[Ru+4]` [ruthenium red]?
Answer: CE cell reorientation / re-alignment induced by mechanical strain (bovine CE cells): significantly suppressed; also recorded: inhibits; CE cell apoptosis (poly(ADPribosyl) polymerase cleavage) (CE cells): did not effect; CE cell proliferation (Ki 67 staining) (CE cells): did not effect; calcium influx / cytosolic calcium induced by mechanical strain [8]: significantly suppressed; also recorded: reduced influx

Question: Which arthritis severity (VEGF [10]) does the source give for “dRK6: Anti-VEGF hexapeptide RRKRRR (SEQ. ID. NO. 12) ([dR][dR][dK][dR][dR][dR])” here?
Answer: suppress and mitigate
